PubChem BioAssay (NCI)
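Cells were grown in 96-well plates and exposed to each compound for 48 hours at five concentrations; endpoints were interpolated linearly between bracketing concentrations, or set to the highest concentration if not reached. GI50 marks 50% less growth. The concentration for full growth arrest is given as TGI.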

Legend:
Experiment in all cases: DTP human tumour cell line panel, 48 h
SW-620 colon = tested on: SW-620 colon
ACHN renal = tested on: ACHN renal
SF-268 CNS = tested on: SF-268 CNS
HOP-62 NSCLC = tested on: HOP-62 NSCLC
U251 CNS = tested on: U251 CNS
OVCAR-4 ovarian = tested on: OVCAR-4 ovarian
MOLT-4 leukemia = tested on: MOLT-4 leukemia
SNB-19 CNS = tested on: SNB-19 CNS
SN12C renal = tested on: SN12C renal
SF-295 CNS = tested on: SF-295 CNS
OVCAR-3 ovarian = tested on: OVCAR-3 ovarian
A498 renal = tested on: A498 renal
MCF7 breast = tested on: MCF7 breast
HL-60(TB) leukemia = tested on: HL-60(TB) leukemia
SK-MEL-28 melanoma = tested on: SK-MEL-28 melanoma
EKVX NSCLC = tested on: EKVX NSCLC
IGROV1 ovarian = tested on: IGROV1 ovarian
LOX IMVI melanoma = tested on: LOX IMVI melanoma

Structure (SMILES)	TGI (SW-620 colon) [µM]	TGI (ACHN renal) [µM]	TGI (SF-268 CNS) [µM]	TGI (HOP-62 NSCLC) [µM]	TGI (U251 CNS) [µM]	TGI (OVCAR-4 ovarian) [µM]	TGI (MOLT-4 leukemia) [µM]	TGI (SNB-19 CNS) [µM]	TGI (SN12C renal) [µM]	TGI (SF-295 CNS) [µM]	TGI (OVCAR-3 ovarian) [µM]	TGI (A498 renal) [µM]	TGI (MCF7 breast) [µM]	TGI (HL-60(TB) leukemia) [µM]	TGI (SK-MEL-28 melanoma) [µM]	TGI (EKVX NSCLC) [µM]	TGI (IGROV1 ovarian) [µM]	TGI (LOX IMVI melanoma) [µM]	GI50 (SN12C renal) [µM]	GI50 (HL-60(TB) leukemia) [µM]
COc1ccc(CCNC(=O)Cc2ccccc2CCO)cc1OC	> 100	> 100	> 100	> 100	> 100	> 100	> 100	> 100	> 100	> 100	> 100	> 100	> 100	> 100	> 100	> 100	> 100			
O=c1[nH]ncc2[nH]c3c(c12)CCCc1ccccc1-3	> 100	> 100	> 100	> 100	> 100	> 100	> 100	> 100	> 100	> 100	> 100	66.3	> 100	> 100		51.7	> 100	> 100		
Cc1occc1C(=S)Nc1ccc(Cl)c(C(=O)OCC2CC2)c1	> 100	> 100	> 100		> 100	> 100	> 100	> 100	> 100	> 100	> 100	> 100	> 100	75.3	> 100	> 100	> 100	> 100		
N#CC1(C#N)C(c2ccccc2)NC23CCCCC2C1(C#N)C(=O)N3 (configuration not stated)	> 100	> 100	> 100	> 100	> 100	> 100	> 100	> 100	> 100	> 100	> 100	> 100	> 100		> 100	> 100	> 100			
CC1(C)C2CCC1(C)C(NC(=O)CCN1CCOCC1)C2 (configuration not stated)	> 100	> 100	> 100	> 100	> 100	> 100	> 100	> 100	> 100	> 100	> 100	> 100	> 100	> 100	> 100	> 100	> 100			
CCOc1ccccc1N=NC1C(=O)N(C(=O)CC(=O)Nc2ccccc2Cl)N=C1C (configuration not stated)	> 100	> 100	> 100	68.8	> 100	> 100	> 100		> 100	> 100	> 100	> 100	> 100	> 100	> 100	80.9	> 100	> 100		
CC(C)Nc1n[nH]c(=O)n1C(C)C	> 100	> 100	> 100	> 100	> 100		> 100	> 100	> 100	> 100	> 100	> 100	> 100	> 100	> 100	> 100	> 100	> 100		
O=C(C1=CCC2(CC1)OCCO2)N(Cc1ccccc1)c1ccccc1I	> 100	43.2	27.9	43.3	48.1	34.4	> 100	37.3	56	51.8	38.6	51.9	72.4	> 100	46.2	31.5		56.8		
O=C(c1cccs1)N(C(=S)OCc1ccccn1)c1ccccc1	> 100	> 100	> 100		> 100		> 100	> 100	> 100	> 100	> 100	> 100	> 100	> 100	> 100	70	> 100	> 100		
COc1cccc(NC(=O)c2c(SC)n[nH]c2N)c1	> 100	> 100	> 100	> 100	> 100	> 100	> 100	> 100	> 100	> 100		> 100	> 100	> 100	> 100	> 100	> 100	> 100		
Cn1cc(C=C(C#N)C#N)c(=O)n(C)c1=O	> 100	> 100	> 100	> 100	> 100	> 100	> 100	> 100	> 100	> 100	> 100	> 100	> 100		> 100	> 100	> 100	> 100		
COc1cccc2c1[C@H](OC)[C@]13O[C@@]1(C2=O)[C@H](O)[C@H](C)[C@@](O)(C(=O)[C@@H]1O[C@H]1C)[C@@H]3O		0.7	1.22	1.59	3.1	0.555	> 47.6		0.819	0.558	1.96	0.585	4.86		0.654	0.616	0.576	0.648	0.0489	
O=C1c2ccccc2C(=O)c2[nH]c(=O)c(/C=N/Nc3ccc([N+](=O)[O-])cc3)nc21	> 45.4	45.4	29.6	> 21.3	> 37.6	> 75.5	> 78.6	> 100	37.2	12.4	> 25.3	14.2	> 44		> 30.5	> 73	> 48.8	> 39.2		
O=c1cc2oc3ccc4ccccc4c3cc-2c(=O)[nH]1	5.3	32	28.4	25.2	22	48.5	8.02	27.2		37.1	24.4	31.8	38.5	4.18	32.7	33.8	27.4	21		
S=C(NNC1=NCCCCN1)Nc1ccccc1		> 100	> 100	> 100	> 100		> 100	> 100	> 100	> 100	> 100	> 100	> 100	> 100	> 100	> 100	> 100	94.7		
Nc1nonc1-c1noc(-c2nonc2N)[n+]1[O-]	79.2	> 100	> 100	> 100	> 100	> 100	> 100	> 100	> 100	> 100		> 100	> 100		> 100	82.8	> 100	> 100		
O=C(CN1CCOCC1)NC1=Nc2ncccc2C(=O)NN1	> 10	> 10	> 10	> 10	> 10		> 10	> 10	> 10	> 10	> 10	> 10	> 10	> 10	> 10	> 10	> 10	> 10		
CCN(CC)CC1CCCCN1CC(=O)N1c2ccc(Br)cc2C(=O)Nc2cccnc21 (configuration not stated)		> 100	> 100	> 100	> 100	> 100	> 100	> 100	> 100	> 100	> 100	> 100	> 100	> 100	> 100	> 100	> 100	> 100		
O=C1C=CC(=O)c2c(O)c(Nc3ccc(OC(F)(F)F)cc3)c(Cl)c(O)c21	2.7	2.76	1.49	2.57	2.05	2.98		2.6	1.17	4.62	1.45	9.36	1.8	3.24	1.97	2.17		0.677		
CCCCCCCCCCCCCC/C(=C/OCC[N+](C)(C)C)OC(C)=O (tested in a mixture with another compound)	17.5	14	5.09	5.8	2.71	7.7		3.35	12.5	5.34	8.21	6.99	10.3	3.27	20.4	10.7	3.96			
CCOC(=O)c1c2ccccc2n2c(=O)n(C)nnc12	> 100	> 100	> 100	> 100	> 100	> 100		> 100	> 100	> 100	> 100	> 100	> 100	> 100	> 100	> 100	> 100	> 100		
C[C@H](C(=O)N1C(=O)O[C@@H](c2ccccc2)[C@H]1C)[C@H](c1ccccc1)N(Cc1ccccc1)OC(=O)c1ccccc1	> 100	> 100	> 100	52.1	> 100	> 100	> 100	> 100	> 100	90.9		> 100	> 100	> 100	> 100		> 100	> 100		
O=C1CC(CC(O)C(O)CO)CC(=O)N1 (configuration not stated)	> 100	> 100	> 100	> 100	> 100		> 100	> 100	> 100	> 100	> 100	> 100	> 100	> 100	> 100	> 100	> 100	> 100		
O=[N+]([O-])/C(Cl)=C(\Sc1ccccc1)C(Cl)=C(Cl)Cl		3.07	3.05	3.68	3.69	3.65	1.58	4.26	1.51	8.92	2.85	3.1	1.1	0.515	2.76	3.9	2.62	0.97		
C/C(=N/NC(=S)Nc1cccc(Cl)c1)c1cccc(/C(C)=N\NC(=S)Nc2cccc(Cl)c2)n1	> 100	6.73	> 47.8	23.8	> 59.3	> 100	8.67	> 100	> 46.3	> 30		> 100	8.94	> 100	> 100	> 39.7	> 75.2	> 38.5		
O=C(Nc1ccccc1)N1CC(CN2CCN(c3ccccc3)CC2)OC1=O (configuration not stated)	> 100	> 100	> 100	> 100	> 100	> 100	> 100	> 100	> 100	> 100		> 100	> 100	> 100	> 100	> 100	> 100	> 100		
CC(=O)OCC1OC(Sc2nc(-c3ccc(C)cc3)c(C#N)c(=O)n2C2OC(COC(C)=O)C(OC(C)=O)C(OC(C)=O)C2OC(C)=O)C(OC(C)=O)C(OC(C)=O)C1OC(C)=O (configuration not stated)	> 100	> 100	> 100	> 100	> 100		> 100	> 100	> 100	> 100	> 100	> 100	> 100	76.6	> 100	> 100	> 100	> 100		25.5
